Measured values: US11787802B2, “Dihydrobenzimidazolones for medical treatment” (C4 Therapeutics, Inc., priority 2017, dated 2023)
pKd: −log10 of the molar value.

target: hCereblon(M1-L442)_hDDB1(M1-H1140) (Homo sapiens (Human), UniProt Q96SW2); test: Fluorescence direct binding protocol (tryptophan fluorescence titration); conditions: fluorescence titration at 20° C., excited at 280 nm, recorded at 340 nm; protein 5.0 E−8 M; assay buffer 50 mM Hepes 7.4 200 mM NaCl; read-out: Fluorescence h-Cereblon_DDB1 Mean Kd_EQ
Experimental: Fluorescence Direct Binding Protocol
Determination of the affinities of compounds to protein containing one or more tryptophan is measurable by monitoring the fluorescence emission in direct mode. The measurements depending on the protein available amounts are performed either manually in a cuvette on ISS-PC1 photon counting spectrofluorometer or automatically in well plates on a fluorescence plate reader device. Fluorescence titrations are performed at 20° C. in the chosen binding assay buffer by using a defined constant protein concentration against ligand concentration variations. Small aliquots of known ligand concentration solubilized in DMSO were added and the fluorescence, excited at 280 nm, was recorded at 340 nm. The fluorescence intensity was corrected for protein dilution and for the filter effect (Birdsall et al.^69). The corrected fluorescence intensity was plotted against the ligand concentration and fitted using a four-parameter sigmoidal function, from which the equilibrium dissociation constant Kd was computed using the law of mass action assuming a 1:1 protein-ligand complex (Eftink, 1997^70).
Process • 1) Optimization of measurement parameters to minimize protein consumption and to minimize the dilution effect and the DMSO content • 2) Titration measurements of the protein against ligand by at least 12 titration steps to obtain a good s-curve fit • 3) Repeat the same titration measurements with the ligand alone to enable correction • 4) Check the stability of the protein once by titration against DMSO alone • 5) Determination of the molar extinction coefficients of the ligand at 280 and 340 nm with help of an UV-spectrophotometer • 6) Use Excel template for the correction of the measured raw data • 7) Use GraphPad Prism software for the quadratic binding fit and the KD evaluation.

Chain of hCereblon(M1-L442)_hDDB1(M1-H1140) (Q96SW2 whole entry): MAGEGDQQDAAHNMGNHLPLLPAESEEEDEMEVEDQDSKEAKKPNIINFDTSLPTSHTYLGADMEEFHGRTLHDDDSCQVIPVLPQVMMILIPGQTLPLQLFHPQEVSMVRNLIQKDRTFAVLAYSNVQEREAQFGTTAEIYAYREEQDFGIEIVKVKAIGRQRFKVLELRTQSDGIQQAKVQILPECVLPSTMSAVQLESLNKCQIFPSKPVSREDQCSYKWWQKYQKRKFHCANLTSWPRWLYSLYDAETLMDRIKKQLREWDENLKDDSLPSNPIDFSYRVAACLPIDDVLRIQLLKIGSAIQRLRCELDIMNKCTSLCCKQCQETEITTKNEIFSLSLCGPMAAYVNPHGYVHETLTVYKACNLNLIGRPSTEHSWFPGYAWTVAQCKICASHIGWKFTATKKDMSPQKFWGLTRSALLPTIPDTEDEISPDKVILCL
Chain of hCereblon(M1-L442)_hDDB1(M1-H1140) (Q16531 whole entry partner): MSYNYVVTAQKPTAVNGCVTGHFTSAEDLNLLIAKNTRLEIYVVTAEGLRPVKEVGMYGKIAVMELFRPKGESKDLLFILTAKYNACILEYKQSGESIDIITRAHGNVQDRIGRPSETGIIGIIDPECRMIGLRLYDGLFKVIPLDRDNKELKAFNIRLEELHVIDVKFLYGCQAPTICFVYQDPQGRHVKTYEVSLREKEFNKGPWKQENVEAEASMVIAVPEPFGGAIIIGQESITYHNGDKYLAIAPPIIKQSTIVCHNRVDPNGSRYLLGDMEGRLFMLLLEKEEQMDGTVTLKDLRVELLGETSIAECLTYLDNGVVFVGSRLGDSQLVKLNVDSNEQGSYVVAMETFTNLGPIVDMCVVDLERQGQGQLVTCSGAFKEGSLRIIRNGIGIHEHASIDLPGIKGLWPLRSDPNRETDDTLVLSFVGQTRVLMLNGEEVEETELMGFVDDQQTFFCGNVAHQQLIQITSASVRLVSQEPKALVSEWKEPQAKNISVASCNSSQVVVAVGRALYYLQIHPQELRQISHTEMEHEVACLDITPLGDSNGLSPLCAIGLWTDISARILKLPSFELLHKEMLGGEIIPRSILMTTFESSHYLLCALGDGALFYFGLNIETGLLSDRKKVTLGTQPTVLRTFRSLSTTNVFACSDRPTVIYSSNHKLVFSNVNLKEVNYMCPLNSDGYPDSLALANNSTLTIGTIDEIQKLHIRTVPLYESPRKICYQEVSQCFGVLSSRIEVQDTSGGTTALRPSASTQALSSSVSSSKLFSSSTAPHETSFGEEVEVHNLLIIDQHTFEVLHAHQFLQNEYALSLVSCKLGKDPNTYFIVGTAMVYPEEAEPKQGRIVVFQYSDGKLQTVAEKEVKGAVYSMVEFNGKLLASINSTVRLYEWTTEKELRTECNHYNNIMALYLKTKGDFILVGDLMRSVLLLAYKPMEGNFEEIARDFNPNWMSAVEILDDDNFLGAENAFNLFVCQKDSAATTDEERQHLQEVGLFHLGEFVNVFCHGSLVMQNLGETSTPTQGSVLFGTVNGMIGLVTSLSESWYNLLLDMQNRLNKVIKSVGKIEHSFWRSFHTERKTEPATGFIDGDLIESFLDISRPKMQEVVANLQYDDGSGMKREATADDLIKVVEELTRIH

SMILES | pKd
CNC(=O)c1ccc2c(c1)nc(C)n2-c1ccc2[nH]c(=O)[nH]c2c1 [Example 5, N,2-Dimethyl-2′-oxo-2′,3′-dihydro-1′H-[1,5′-bibenzo[d]imidazole]-5-carboxamide] | 6.74
O=C(NCc1ccccc1)Nc1ccc2[nH]c(=O)[nH]c2c1 [Example 94, 1-Benzyl-3-(2-oxo-2,3-dihydro-1H-benzo[d]imidazol-5-yl)urea] | > 9.00
CC(=O)Nc1ccc(NC(=O)Nc2ccc3[nH]c(=O)[nH]c3c2)cc1 [Example 101, N-(4-(3-(2-oxo-2,3-dihydro-1H-benzo[d]imidazol-5-yl)ureido)phenyl)acetamide] | 7.85
CNC(=O)c1nc2ccccc2n1-c1ccc2[nH]c(=O)[nH]c2c1 [Example 102, N-Methyl-1-(2-oxo-1,3-dihydrobenzimidazol-5-yl)benzimidazole-2-carboxamide] | 6.89
O=C(Nc1ccccc1)Nc1ccc2[nH]c(=O)[nH]c2c1 [Example 88, 1-(2-Oxo-2,3-dihydro-1H-benzo[d]imidazol-5-yl)-3-phenylurea] | 7.77
CNS(=O)(=O)c1ccc(CC(=O)Nc2ccc3[nH]c(=O)[nH]c3c2)cc1 [Example 106, 2-(4-(N-Methylsulfamoyl)phenyl)-N-(2-oxo-2,3-dihydro-1H-benzo[d]imidazol-5-yl)acetamide] | 9.00
O=c1[nH]c2ccc(-c3ccnc(Cl)c3)cc2[nH]1 [Example 20, 5-(2-Chloropyridin-4-yl)-1H-benzo[d]imidazol-2(3H)-one] | 7.17
CCc1nc2cc(C(=O)NCCCCCNC(=O)C[C@@H]3N=C(c4ccc(Cl)cc4)c4c(sc(C)c4C)-n4c(C)nnc43)ccc2n1-c1ccc2[nH]c(=O)[nH]c2c1 [Example A, N-(5-(2-((6S)-4-(4-chlorophenyl)-2,3,9-trimethyl-6H-thieno[3,2-f][1,2,4]triazolo[4,3-a][1,4]diazepin-6-yl)acetamido)pentyl)-2-ethyl-2′-oxo-2′,3′-dihydro-1′H-[1,5′-bibenzo[d]imidazole]-5-carboxamide] | 7.26
CC(=O)Nc1ccc(C(=O)Nc2ccc3[nH]c(=O)[nH]c3c2)cc1 [Example 74, 4-Acetamido-N-(2-oxo-2,3-dihydro-1H-benzo[d]imidazol-5-yl)benzamide] | 8.70
O=c1[nH]c2ccc(N3C[C@H]4CC[C@@H](C3)N4)cc2[nH]1 [Example 59, 5-[rac-(1S,5R)-3,8-diazabicyclo[3.2.1]octan-3-yl]-1,3-dihydrobenzimidazol-2-one] | 8.22
O=C1c2ccc(Br)cc2CN1c1ccc2[nH]c(=O)[nH]c2c1 [Example 110, 5-(5-Bromo-1-oxo-isoindolin-2-yl)-1,3-dihydrobenzimidazol-2-one] | 7.54
Cn1ccc(-c2cccc(NC(=O)c3ccc4[nH]c(=O)[nH]c4c3)c2)n1 [Example 130, N-(3-(1-Methyl-1H-pyrazol-3-yl)phenyl)-2-oxo-2,3-dihydro-1H-benzo[d]imidazole-5-carboxamide] | 6.11
CNC(=O)c1ccc(Nc2ccc3[nH]c(=O)[nH]c3c2)c(N)c1 [Example 1, 3-Amino-N-methyl-4-[(2-oxo-1,3-dihydrobenzimidazol-5-yl)amino]benzamide] | 6.23
O=C(c1ccc2[nH]c(=O)[nH]c2c1)N1CCc2ccccc21 [Example 24, 5-(Indoline-1-carbonyl)-1H-benzo[d]imidazol-2(3H)-one] | 9.00
Cn1c(=O)[nH]c2ncc(C(=O)Nc3ccccc3)cc21 [Example 27, 1-Methyl-2-oxo-N-phenyl-3H-imidazo[4,5-b]pyridine-6-carboxamide] | 9.00
Cn1c(=O)n(C)c2cc(Nc3ccccc3[N+](=O)[O-])ccc21 [Example 49, 1,3-Dimethyl-5-((2-nitrophenyl)amino)-1,3-dihydro-2H-benzo[d]imidazol-2-one] | 7.64
COC(=O)c1nc2ccccc2n1-c1ccc2[nH]c(=O)[nH]c2c1 [Example 82, Methyl 1-(2-oxo-1,3-dihydrobenzimidazol-5-yl)benzimidazole-2-carboxylate] | 8.52
O=C(Nc1ccc2[nH]c(=O)[nH]c2c1)c1ccccc1-c1ccncc1 [Example 136, N-(2-Oxo-2,3-dihydro-1H-benzo[d]imidazol-5-yl)-2-(pyridin-4-yl)benzamide] | 7.10
CC(C)(C)OC(=O)Nc1ccc2c(c1)CCN2C(=O)Nc1ccc2[nH]c(=O)[nH]c2c1 [Example 119, tert-Butyl (1-((2-oxo-2,3-dihydro-1H-benzo[d]imidazol-5-yl)carbamoyl)indolin-5-yl)carbamate] | 6.95
O=c1[nH]c2cnc(-c3ccc(F)cc3)cc2[nH]1 [Example 36, 6-(4-Fluoro-phenyl)-1,3-dihydro-imidazo[4,5-c]pyridin-2-one] | 7.11

SMILES | pKd
Cn1c(=O)n(C)c2cc(NC(=O)c3ccco3)ccc21 [Example 25, N-(1,3-Dimethyl-2-oxo-benzimidazol-5-yl)furan-2-carboxamide] | 6.95
O=c1[nH]c2ccc(S(=O)(=O)N3CCc4ccccc43)cc2[nH]1 [Example 116, 5-(Indolin-1-ylsulfonyl)-1,3-dihydro-2H-benzo[d]imidazol-2-one] | 7.32
CCOC(=O)c1ccc2c(c1)CN(c1ccc3[nH]c(=O)[nH]c3c1)C2=O [Example 111, Ethyl 1-oxo-2-(2-oxo-1,3-dihydrobenzimidazol-5-yl)isoindoline-5-carboxylate] | 7.74
O=C(Nc1ccccc1)c1ccc2[nH]c(=O)[nH]c2c1 [Example 77, 2-Oxo-N-phenyl-2,3-dihydro-1H-benzo[d]imidazole-5-carboxamide] | 7.38
CC(=O)NCCc1nc2ccccc2n1-c1ccc2[nH]c(=O)[nH]c2c1 [Example 80, N-[2-[1-(2-Oxo-1,3-dihydrobenzimidazol-5-yl)benzimidazol-2-yl]ethyl]acetamide] | 7.82
CCOC(=O)c1ccc(NS(=O)(=O)c2ccc3[nH]c(=O)[nH]c3c2)cc1 [Example 43, Ethyl 4-((2-oxo-2,3-dihydro-1H-benzo[d]imidazole)-5-sulfonamido)benzoate] | 7.00
Cn1cncc1-c1cc(-c2nc3ccccc3n2-c2ccc3c(c2)n(C)c(=O)n3C)c2ccccc2n1 [Example 31, 1′,3′-Dimethyl-2-(2-(1-methyl-1H-imidazol-5-yl)quinolin-4-yl)-1′,3′-dihydro-2′H-[1,5′-bibenzo[d]imidazol]-2′-one] | 8.15
O=C(Nc1ccc2[nH]c(=O)[nH]c2c1)N1CCc2ccc(Cl)cc21 [Example 129, 6-Chloro-N-(2-oxo-2,3-dihydro-1H-benzo[d]imidazol-5-yl)indoline-1-carboxamide] | 6.73
O=c1[nH]c2ccc(NS(=O)(=O)C3CCNCC3)cc2[nH]1 [Example 134, N-(2-Oxo-2,3-dihydro-1H-benzo[d]imidazol-5-yl)piperidine-4-sulfonamide] | 8.15
CNC(=O)c1ccc2c(c1)nc(C(C)C)n2-c1ccc2[nH]c(=O)[nH]c2c1 [Example 16, 2-Isopropyl-N-methyl-2′-oxo-2′,3′-dihydro-1′H-[1,5′-bibenzo[d]imidazole]-5-carboxamide] | 7.96
CC(=O)N1CCC(N(C)C(=O)c2ccc3[nH]c(=O)[nH]c3c2)CC1 [Example 86, N-(1-Acetylpiperidin-4-yl)-N-methyl-2-oxo-2,3-dihydro-1H-benzo[d]imidazole-5-carboxamide] | 8.40
Cc1ncc(-c2ccc3[nH]c(=O)[nH]c3c2)s1 [Example 21, 5-(2-Methylthiazol-5-yl)-1H-benzo[d]imidazol-2(3H)-one] | 8.30
Cn1c(=O)[nH]c2ccc(Nc3ccccc3N)cc21 [Example 52, 6-((2-Aminophenyl)amino)-1-methyl-1,3-dihydro-2H-benzo[d]imidazol-2-one] | 8.22
Cn1cncc1-c1cc(-c2nc3ccccc3n2-c2ccc3[nH]c(=O)[nH]c3c2)c2ccccc2n1 [Example 8, 2-(2-(1-Methyl-1H-imidazol-5-yl)quinolin-4-yl)-1′H-[1,5′-bibenzo[d]imidazol]-2′(3′H)-one] | 8.22
COc1ccc(Cc2ccc3[nH]c(=O)[nH]c3c2)cc1 [Example 39, 5-[(4-Methoxyphenyl)methyl]-1,3-dihydrobenzimidazol-2-one] | 8.22
Nc1ccc2c(c1)CCN2C(=O)Nc1ccc2[nH]c(=O)[nH]c2c1 [Example 121, 5-Amino-N-(2-oxo-2,3-dihydro-1H-benzo[d]imidazol-5-yl)indoline-1-carboxamide] | 7.19
CNC(=O)c1ccccc1NC(=O)c1ccc2[nH]c(=O)[nH]c2c1 [Example 147, N-(2-(Methylcarbamoyl)phenyl)-2-oxo-2,3-dihydro-1H-benzo[d]imidazole-5-carboxamide] | 6.47
COc1cnccc1C(=O)Nc1ccc2[nH]c(=O)[nH]c2c1 [Example 132, 3-Methoxy-N-(2-oxo-2,3-dihydro-1H-benzo[d]imidazol-5-yl)isonicotinamide] | > 9.00
CC(=O)NCCC(=O)Nc1ccc2[nH]c(=O)[nH]c2c1 [Example 90, 3-Acetamido-N-(2-oxo-2,3-dihydro-1H-benzo[d]imidazol-5-yl)propanamide] | 7.72
